The subject of series [1] is Type 1 herpes simplex strain HFEM. Nature of the series: Inhibition of hsv1 in infected Vero cells (Example 1). The note with it: Human alphaherpesvirus 1, Vero; for inhibition at 1000 µg/mL: frusemide 1 mg/ml, digoxin 30 mcg/ml. The format is cell-based, herpes simplex virus. As to the method: . Culture and assay methods follow those described by Lennette and Schmidt (1979) for herpes simplex virus and Vero cells with minor modifications.
Type 1 herpes simplex strain HFEM is a derivative of the Rockerfeller strain HF (Wildy 1955), and Type 2 herpes simplex strain 3345, a penile isolate (Skinner et al 1977) were used as prototype strains. These prototypes were stored at −80° C. until needed.
African Green Monkey kidney cells (vero) were obtained from the National Institute of Biological Standards and Control UK and were used as the only cell line for all experiments in the examples.
Cells and viruses were maintained on Glasgows modified medium supplemented with 10% foetal bovine serum.

For series [2] the following is noted: cited from earlier work.
The test system of series [3] is type 2 herpes simplex strain 3345. Nature of the series: Inhibition of hsv2 replication in African green monkey kidney cells (Example 3). The format is cell-based, herpes simplex virus. The settings on record: for inhibition at 15 µg/mL: Digoxin 15 mcg/ml; for inhibition at 15 µg/mL / inhibition at 30 µg/mL: Frusemide 0 mg/ml; for inhibition at 30 µg/mL: Digoxin 30 mcg/ml; for Inhibition of virus replication / inhibition at 500 µg/mL: Digoxin 0 mcg/ml; for Inhibition of virus replication: Frusemide 1.0 mg.ml; for inhibition at 500 µg/mL: Frusemide 0.5 mg/ml, read-out: Inhibition of virus replication. An excerpt: The compositions were applied to different types of vero cells (African green monkey kidney cells and […]) and infected with type 2 herpes simplex virus (strains 3345 and 180) at low, intermediate, and high multiplicities of infection (M0I). Inhibition of virus replication was scored on the scale:
The following results were obtained using African green monkey kidney cells and type 2 herpes simplex strain 3345: […]

Setting [4] is: Human alphaherpesvirus 2, read-out: Inhibition of virus replication, HIGH M0I HSV2.
Where [5] appears, read: Human alphaherpesvirus 2, read-out: Inhibition of virus replication, INT. M0I HSV2.
The mark [6] stands for this setting: Human alphaherpesvirus 2, read-out: Inhibition of virus replication, LOW M0I HSV2.

Read-outs that look alike come from different tables or passages of the source.

In the case of `C[C@H]1O[C@@H](O[C@H]2[C@@H](O)C[C@H](O[C@H]3[C@@H](O)C[C@H](O[C@H]4CC[C@@]5(C)[C@H](CC[C@@H]6[C@@H]5C[C@@H](O)[C@]5(C)[C@@H](C7=CC(=O)OC7)CC[C@]65O)C4)O[C@@H]3C)O[C@@H]2C)C[C@H](O)[C@@H]1O` [digoxin], the inhibition at 30 µg/mL is 0% in series [1] (read-out: Inhibition of hsv1, Multiplicity of infection High, frusemide 1 mg/ml, digoxin 30 mcg/ml); 40% in series [1] (read-out: Inhibition of hsv1, Multiplicity of infection Low, frusemide 1 mg/ml, digoxin 30 mcg/ml); 20% in series [1] (read-out: Inhibition of hsv1, Multiplicity of infection Medium, frusemide 1 mg/ml, digoxin 30 mcg/ml); 0% in series [3] (setting [4]); 20% in series [3] (setting [5]); 60% in series [3] (setting [6]). Also, the solubility result in series [2] (in diluted (50%) alcohol and in chloroform) is listed as “slightly soluble”; in series [2] (in pyridine), “freely soluble”; in series [2] (in water and in ether) it was “practically insoluble”. The inhibition at 15 µg/mL in series [3] (setting [4]), in series [3] (setting [5]) and in series [3] (setting [6]) was 0% in each case.

For the compound `NS(=O)(=O)c1cc(C(=O)O)c(NCc2ccco2)cc1Cl` [frusemide, 4-chloro-N-furfuryl-5-sulfamoylanthranilic acid], the inhibition at 1000 µg/mL is 0% in series [1] (Multiplicity of infection High), 20% in series [1] (Multiplicity of infection Low) and 20% in series [1] (Multiplicity of infection Medium). In addition, the “Inhibition of virus replication” value in series [3] (HIGH M0I HSV2) is reported as “++ (40% inhibition)”; in series [3] (INT. M0I HSV2), “+++ (60% inhibition)”; in series [3] (LOW M0I HSV2), “+++ (60% inhibition)”. The inhibition at 500 µg/mL in series [3] (Human alphaherpesvirus 2, HIGH M0I HSV2) stood at 0%; in series [3] (Human alphaherpesvirus 2, INT. M0I HSV2) it was 20%; in series [3] (Human alphaherpesvirus 2, LOW M0I HSV2), 20%.

Values taken from US7534768B2, “Treatment of DNA viral infections” (Henderson Morely Research and Development Ltd., priority 2000, dated 2009).
